Assays:
[1] = system: H460 tumor cells; test: Retention of activity in H460 tumor cells under efflux conditions; type: cell-based, human; conditions: H460 cells loaded 30 min, then 30 min incubation in new buffer (efflux conditions)
Description: FIG. 5: Retention of (2S)-2-amino-5-[3-[^18F]fluoropropyl]hexanedioic acid in H460 tumor cells. H460 cells were loaded with 0.25 MBq (2S)-2-amino-5-[3-[^18F]fluoropropyl]hexanedioic acid for 30 min in PBS/BSA. After washing, the cells were incubated with new buffer (without radioactivity) for additional 10, 20, 30 min. The release of radioactivity into the supernatant as well as the retention inside the cells was determined.
In a second experiment, the retention of activity in tumor cells was examined. H460 cells were loaded with 0.25 MBq (2S)-2-amino-5-[3-[^18F]fluoropropyl]hexanedioic acid for 30 minutes in PBS/BSA-buffer. After this uptake, the buffer was removed and the cells were washed with PBS. The cells were then incubated with new PBS-buffer (without activity) for up to 30 min. The release of activity into the supernatant as well as the retention of activity inside the cells was examined. It was discovered, that more than 80% of activity were retained in the tumor cells after 30 min incubation under these efflux conditions (see FIG. 5).

[2] = system: H460 (human NSCLC) cells; test: Cell uptake of F-18 labeled tracer in H460 cells; type: cell-based; conditions: 0.25 MBq, 60 min incubation, PBS 0.1% BSA
Description: FIG. 4: Time dependent uptake of (2S)-2-amino-5-[3-[^18F]fluoropropyl]hexanedioic acid was determined. H460 cells were incubated with 0.25 MBq (2S)-2-amino-5-[3-[^18F]fluoropropyl]hexanedioic acid for up to 60 min and the cell-bound fraction was determined after 10, 20, 30 and 60 min)
Cell uptake & Retention of (2S)-2-amino-5-[3-[^18F]fluoropropyl]hexanedioic acid—For determination of the biological activity of (2S)-2-amino-5-[3-[^18F]fluoropropyl]hexanedioic acid, the F-18 labeled compound was used as tracer in a cell uptake experiment using H460 (human NSCLC) cells. Approximately 100.000 cells were incubated with 0.25 MBq (2S)-2-amino-5-[3-[^18F]fluoropropyl]hexanedioic acid for up to 60 minutes in PBS-buffer containing 0.1% BSA and the cell-bound fraction was determined. A time-dependent uptake was observed during the 60 min incubation period. Approximately 20% of applied dose was taken up by the cells during the 60 min incubation period (FIG. 4).

[3] = system: NCI-H460 (human NSCLC) tumor bearing nude-rats; test: PET imaging in NCI-H460 tumor bearing nude-rats; type: in vivo, nude-rats (RH-Foxn1 nu/nu); conditions: 8.35 MBq i.v., PET at 60 min p.i. for 10 min
Description: FIG. 6: PET-Imaging of (2S)-2-amino-5-[3-[^18F]fluoropropyl]hexanedioic acid in H460 tumor bearing rats. 8.35 MBq of radioactive tracer was injected i.v. into rats. PET images were obtained using the Siemens Inveon PET/CT scanner from 60 min p.i. for 10 min.
PET imaging. (2S)-2-amino-5-[3-[^18F]fluoropropyl]hexanedioic acid was examined in NCI-H460 (human NSCLC) tumor bearing nude-rats (RH-Foxn1 nu/nu) using PET-Imaging. 8.35 MBq of (2S)-2-amino-5-[3-[^18F]fluoropropyl]hexanedioic acid was injected into the rat. PET images were acquired at 60 min p.i. for 10 min. […] 3.2% of the injected dose was taken up per gram of tumor as was determined by region of interest (ROI) analysis (FIG. 6).

tumor uptake by region of interest (ROI) analysis [3]: 3.2 % of the injected dose per gra
Compound: N[C@@H](CCC(CCC[18F])C(=O)O)C(=O)O (stereo partly drawn) [(2S)-2-amino-5-[3-[^18F]fluoropropyl]hexanedioic acid]
activity retained in the tumor cells [1]: more than 80%
cell uptake (cell-bound fraction) [2]: Approximately 20 % of applied dose
visibility of the tumor in PET images [3]: very well visible

— patent US9017645B2, “Homoglutamic acid derivatives” (Piramal Imaging SA, priority 2009, dated 2015)
